Experimental data reported in PubChem BioAssay AID1963845 (Molecular Pharmacology Branch, DTP, NCI, 2024).
pIC50: −log10 of the molar value.

System: 429239-143-T-J1-PDC complex spheroid viability
Experiment: Anticancer human tumor 429239-143-T-J1-PDC patient-derived small cell lung carcinoma cell line growth inhibition [POLQ]
Details: for pIC50: curve of first compound; for viability, T/C: stronger effect = lower value
In short: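 Complex spheroid viability model combining PDC tumour cells with endothelial (HUVEC) and MSC stromal cells. Novobiocin, ART-558 or RP6685 were tested singly and in combination with standard and investigational anticancer drugs. Each was titrated in half-log steps from near clinical Cmax, or from 10 microM where Cmax was unknown.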

[1] = second compound 0.0316 µM, first compound 0.0316 µM
[2] = second compound 0.0316 µM, first compound 0.1 µM
[3] = second compound 0.0316 µM, first compound 0.316 µM
[4] = second compound 0.0316 µM, first compound 1 µM
[5] = second compound 0.0316 µM, first compound 3.16 µM
[6] = second compound 0.0316 µM, first compound 10 µM
[7] = second compound 0.1 µM, first compound 0.0316 µM
[8] = second compound 0.1 µM, first compound 0.1 µM
[9] = second compound 0.1 µM, first compound 0.316 µM
[10] = second compound 0.1 µM, first compound 1 µM
[11] = second compound 0.1 µM, first compound 3.16 µM
[12] = second compound 0.1 µM, first compound 10 µM
[13] = second compound 0.316 µM, first compound 0.0316 µM
[14] = second compound 0.316 µM, first compound 0.1 µM
[15] = second compound 0.316 µM, first compound 0.316 µM
[16] = second compound 0.316 µM, first compound 1 µM
[17] = second compound 0.316 µM, first compound 3.16 µM
[18] = second compound 0.316 µM, first compound 10 µM
[19] = second compound 1 µM, first compound 0.0316 µM
[20] = second compound 1 µM, first compound 0.1 µM
[21] = second compound 1 µM, first compound 0.316 µM
[22] = second compound 1 µM, first compound 1 µM
[23] = second compound 1 µM, first compound 3.16 µM
[24] = second compound 1 µM, first compound 10 µM
[25] = second compound 3.16 µM, first compound 0.0316 µM
[26] = second compound 3.16 µM, first compound 0.1 µM
[27] = second compound 3.16 µM, first compound 0.316 µM
[28] = second compound 3.16 µM, first compound 1 µM
[29] = second compound 3.16 µM, first compound 3.16 µM
[30] = second compound 3.16 µM, first compound 10 µM
[31] = second compound 10 µM, first compound 0.0316 µM
[32] = second compound 10 µM, first compound 0.1 µM
[33] = second compound 10 µM, first compound 0.316 µM
[34] = second compound 10 µM, first compound 1 µM
[35] = second compound 10 µM, first compound 3.16 µM
[36] = second compound 10 µM, first compound 10 µM
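Further: luminescence signal used as surrogate measure of viable cells; spheroids exposed to compounds for seven days before readout.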
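Wherever viability, T/C is given: 100% = DMSO vehicle control viability as luminescence relative to vehicle.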

`CC(=O)O[C@H]1C(=O)[C@@]2(C)[C@H]([C@H](OC(=O)c3ccccc3)[C@]3(O)C[C@H](OC(=O)[C@H](O)[C@@H](NC(=O)c4ccccc4)c4ccccc4)C(C)=C1C3(C)C)[C@]1(OC(C)=O)CO[C@@H]1C[C@@H]2O` + Nc1ccc(C#CCN(C(=O)Cc2ncc(C(F)(F)F)cc2C(F)(F)F)c2ccc(F)cc2)nn1 was tested, and the pIC50 (second compound 0.0316 µM) was 7.84, the pIC50 (second compound 0.1 µM) was 7.84 and the pIC50 (second compound 0.316 µM) was 7.85. It also gave a pIC50 (second compound 1 µM) of 7.82, a pIC50 (second compound 3.16 µM) of 7.85 and a pIC50 (second compound 10 µM) of 7.88. It also gave a viability, T/C (second compound 0.0316 µM, first compound 0.00949 µM) of 65.6%, a viability, T/C (second compound 0.0316 µM, first compound 0.03 µM) of 20.2% and a viability, T/C (second compound 0.0316 µM, first compound 0.0949 µM) of 16%. It also gave a viability, T/C (second compound 0.0316 µM, first compound 0.3 µM) of 16.2%, a viability, T/C (second compound 0.0316 µM, first compound 0.949 µM) of 26.6% and a viability, T/C (second compound 0.0316 µM, first compound 3 µM) of 32.6%. It also gave a viability, T/C (second compound 0.1 µM, first compound 0.00949 µM) of 67%, a viability, T/C (second compound 0.1 µM, first compound 0.03 µM) of 18.6% and a viability, T/C (second compound 0.1 µM, first compound 0.0949 µM) of 15.9%. It also gave a viability, T/C (second compound 0.1 µM, first compound 0.3 µM) of 17.1%, a viability, T/C (second compound 0.1 µM, first compound 0.949 µM) of 22.2% and a viability, T/C (second compound 0.1 µM, first compound 3 µM) of 24.6%. For the same molecule, the viability, T/C (second compound 0.316 µM, first compound 0.00949 µM) was 64.2%, the viability, T/C (second compound 0.316 µM, first compound 0.03 µM) was 22.6% and the viability, T/C (second compound 0.316 µM, first compound 0.0949 µM) was 16%. For the same molecule, the viability, T/C (second compound 0.316 µM, first compound 0.3 µM) was 17.1%, the viability, T/C (second compound 0.316 µM, first compound 0.949 µM) was 19.8% and the viability, T/C (second compound 0.316 µM, first compound 3 µM) was 26.2%. It also gave a viability, T/C (second compound 1 µM, first compound 0.00949 µM) of 71%, a viability, T/C (second compound 1 µM, first compound 0.03 µM) of 18.2% and a viability, T/C (second compound 1 µM, first compound 0.0949 µM) of 14.8%. The viability, T/C (second compound 1 µM, first compound 0.3 µM) was 17.5%, the viability, T/C (second compound 1 µM, first compound 0.949 µM) was 25.2% and the viability, T/C (second compound 1 µM, first compound 3 µM) was 24%. The viability, T/C (second compound 3.16 µM, first compound 0.00949 µM) was 67%, the viability, T/C (second compound 3.16 µM, first compound 0.03 µM) was 16.2% and the viability, T/C (second compound 3.16 µM, first compound 0.0949 µM) was 15.4%. It also gave a viability, T/C (second compound 3.16 µM, first compound 0.3 µM) of 15.9%, a viability, T/C (second compound 3.16 µM, first compound 0.949 µM) of 18.5% and a viability, T/C (second compound 3.16 µM, first compound 3 µM) of 26.7%. It also gave a viability, T/C (second compound 10 µM, first compound 0.00949 µM) of 64.3%, a viability, T/C (second compound 10 µM, first compound 0.03 µM) of 14.5% and a viability, T/C (second compound 10 µM, first compound 0.0949 µM) of 13.4%. For the same molecule, the viability, T/C (second compound 10 µM, first compound 0.3 µM) was 14.3%, the viability, T/C (second compound 10 µM, first compound 0.949 µM) was 15.9% and the viability, T/C (second compound 10 µM, first compound 3 µM) was 18.5%.
`COc1cc(C2c3cc4c(cc3C(OC3OC5COC(C)OC5C(O)C3O)C3COC(=O)C23)OCO4)cc(OC)c1O` (stereo unspecified) + Nc1ccc(C#CCN(C(=O)Cc2ncc(C(F)(F)F)cc2C(F)(F)F)c2ccc(F)cc2)nn1 gave a pIC50 (second compound 0.0316 µM) of 6.30, a pIC50 (second compound 0.1 µM) of 6.31 and a pIC50 (second compound 0.316 µM) of 6.29. The pIC50 (second compound 1 µM) was 6.33, the pIC50 (second compound 3.16 µM) was 6.31 and the pIC50 (second compound 10 µM) was 6.35. It also gave a viability, T/C [1] of 106%, a viability, T/C [2] of 103% and a viability, T/C [3] of 76.4%. The viability, T/C [4] was 11.7%, the viability, T/C [5] was 6.31% and the viability, T/C [6] was 7.42%. The viability, T/C [7] was 103%, the viability, T/C [8] was 99.5% and the viability, T/C [9] was 73%. The viability, T/C [10] was 12%, the viability, T/C [11] was 7.16% and the viability, T/C [12] was 6.74%. It also gave a viability, T/C [13] of 104%, a viability, T/C [14] of 105% and a viability, T/C [15] of 77.2%. The viability, T/C [16] was 12.9%, the viability, T/C [17] was 5.81% and the viability, T/C [18] was 7.82%. For the same molecule, the viability, T/C [19] was 92.5%, the viability, T/C [20] was 95.3% and the viability, T/C [21] was 68.5%. For the same molecule, the viability, T/C [22] was 12.6%, the viability, T/C [23] was 7.75% and the viability, T/C [24] was 8.54%. For the same molecule, the viability, T/C [25] was 100%, the viability, T/C [26] was 95.2% and the viability, T/C [27] was 71.3%. The viability, T/C [28] was 14.6%, the viability, T/C [29] was 5.65% and the viability, T/C [30] was 8.11%. For the same molecule, the viability, T/C [31] was 100%, the viability, T/C [32] was 96.1% and the viability, T/C [33] was 66.1%. For the same molecule, the viability, T/C [34] was 11.5%, the viability, T/C [35] was 5.67% and the viability, T/C [36] was 7.88%.
`COc1cccc2c1C(=O)c1c(O)c3c(c(O)c1C2=O)CC(O)(C(=O)CO)CC3OC1CC(N)C(O)C(C)O1` (stereo unspecified) + Nc1ccc(C#CCN(C(=O)Cc2ncc(C(F)(F)F)cc2C(F)(F)F)c2ccc(F)cc2)nn1 gave a pIC50 (second compound 0.0316 µM) of 7.12, a pIC50 (second compound 0.1 µM) of 7.09 and a pIC50 (second compound 0.316 µM) of 6.96. For the same molecule, the pIC50 (second compound 1 µM) was 7.13, the pIC50 (second compound 3.16 µM) was 7.15 and the pIC50 (second compound 10 µM) was 7.17. It also gave a viability, T/C [1] of 85.2%, a viability, T/C [2] of 38.8% and a viability, T/C [3] of 5.33%. It also gave a viability, T/C [4] of 1.05%, a viability, T/C [5] of 0.09% and a viability, T/C [6] of 0.32%. The viability, T/C [7] was 83.5%, the viability, T/C [8] was 42.8% and the viability, T/C [9] was 7.41%. It also gave a viability, T/C [10] of 0.82%, a viability, T/C [11] of 0.06% and a viability, T/C [12] of 0.05%. For the same molecule, the viability, T/C [13] was 87.3%, the viability, T/C [14] was 53.6% and the viability, T/C [15] was 6.68%. The viability, T/C [16] was 0.74%, the viability, T/C [17] was 0.05% and the viability, T/C [18] was 0.19%. For the same molecule, the viability, T/C [19] was 83.1%, the viability, T/C [20] was 38.2% and the viability, T/C [21] was 5.31%. The viability, T/C [22] was 0.69%, the viability, T/C [23] was 0.1% and the viability, T/C [24] was 0.83%. For the same molecule, the viability, T/C [25] was 83.9%, the viability, T/C [26] was 34.8% and the viability, T/C [27] was 5.88%. The viability, T/C [28] was 0.94%, the viability, T/C [29] was 1.4% and the viability, T/C [30] was 0.16%. The viability, T/C [31] was 80.7%, the viability, T/C [32] was 34.4% and the viability, T/C [33] was 5.07%. It also gave a viability, T/C [34] of 0.55%, a viability, T/C [35] of 1.2% and a viability, T/C [36] of 0.18%.
